Tests used:
Rucaparib = compound: CNCc1ccc(-c2[nH]c3cc(F)cc4c3c2CCNC4=O)cc1 [Rucaparib]
Alpelisib/BYL719 = compound: Cc1nc(NC(=O)N2CCC[C@H]2C(N)=O)sc1-c1ccnc(C(C)(C)C(F)(F)F)c1 [Alpelisib/BYL719]
Cediranib/AZD2171 = compound: COc1cc2c(Oc3ccc4[nH]c(C)cc4c3F)ncnc2cc1OCCCN1CCCC1 [Cediranib/AZD2171]
THZ1 [1] = compound: T1, CN(C)C/C=C/C(=O)Nc1ccc(C(=O)Nc2cccc(Nc3ncc(Cl)c(-c4c[nH]c5ccccc45)n3)c2)cc1 [THZ1]
[2] = compound: CC(=O)Nc1cccc(-n2c(=O)n(C3CC3)c(=O)c3c(Nc4ccc(I)cc4F)n(C)c(=O)c(C)c32)c1
BVD523 = compound: CC(C)Nc1cc(-c2c[nH]c(C(=O)N[C@H](CO)c3cccc(Cl)c3)c2)c(Cl)cn1 [BVD523]
[3] = compound: CO[C@@H](C)Cn1c(=O)n(C)c2cnc3ccc(-c4cncc(C(C)(C)O)c4)cc3c21
Saracatinib/AZD0530 = compound: CN1CCN(CCOc2cc(OC3CCOCC3)c3c(Nc4c(Cl)ccc5c4OCO5)ncnc3c2)CC1 [Saracatinib/AZD0530]
THZ531 [4] = compound: T2, CN(C)C/C=C/C(=O)Nc1ccc(C(=O)N2CCC[C@@H](Nc3ncc(Cl)c(-c4c[nH]c5ccccc45)n3)C2)cc1 [THZ531]
[5] = compound: CCCCOc1c(C(=O)c2c(F)cc(C)cc2F)c[nH]c2nncc1-2
AZD1775 = compound: C=CCn1c(=O)c2cnc(Nc3ccc(N4CCN(C)CC4)cc3)nc2n1-c1cccc(C(C)(C)O)n1 [AZD1775]
[6] = compound: COc1ccc2c(c1)[C@]1(C[C@H]1c1ccc3c(/C=C/c4ccc(CN5C[C@@H](C)O[C@@H](C)C5)cc4)n[nH]c3c1)C(=O)N2
[7] = compound: CCc1cnn2c(NCc3ccc[n+]([O-])c3)cc(N3CCCC[C@H]3CCO)nc12; experiment: increase in dead-cell fraction, 72 h; higher = more death;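 further: breast cancer cell lines in 384-well plates, stained with Hoechst plus LIVE/DEAD far red dye and imaged, cells above an LDR intensity threshold counted dead, Hoechst-negative corpses included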
[8] = compound: CC(=O)c1c(C)c2cnc(Nc3ccc(N4CCNCC4)cn3)nc2n(C2CCCC2)c1=O; experiment: as above
BSJ-03-123 = compound: CC(=O)c1c(C)c2cnc(Nc3ccc(N4CCN(CCOCCOCCOCCNC(=O)COc5cccc6c5C(=O)N(C5CCC(=O)NC5=O)C6=O)CC4)cn3)nc2n(C2CCCC2)c1=O [BSJ-03-123]; experiment: as above
THZ1 [9] = compound: T1, THZ1; experiment: as above
LEE011/Ribociclib = compound: CN(C)C(=O)c1cc2cnc(Nc3ccc(N4CCNCC4)cn3)nc2n1C1CCCC1 [LEE011/Ribociclib]; experiment: as above
THZ531 [10] = compound: T2, THZ531; experiment: as above
YKL-5-124 = compound: C=CC(=O)Nc1ccc(C(=O)Nc2[nH]nc3c2CN(C(=O)N[C@H](CN(C)C)c2ccccc2)C3(C)C)cc1 [YKL-5-124]; experiment: as above
Neratinib/HKI272 = compound: CCOc1cc2ncc(C#N)c(Nc3ccc(OCc4ccccn4)c(Cl)c3)c2cc1NC(=O)/C=C/CN(C)C [Neratinib/HKI272]; experiment: as above
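Wherever GR50, 72 h is given: breast cancer and non-malignant breast epithelial cell lines, Deep Dye Drop or Dye Drop imaging, nine half-log doses, GR normalized to time-zero plates and DMSO-only controls.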

## EFM19
Rucaparib
  GR50, 72 h: > 10 µM
Alpelisib/BYL719
  GR50, 72 h: 0.282 µM
Cediranib/AZD2171
  GR50, 72 h: > 10 µM
THZ1 [1]
  GR50, 72 h: 0.383 µM
[2]
  GR50, 72 h: > 1 µM
BVD523
  GR50, 72 h: > 10 µM
[3]
  GR50, 72 h: 0.00381 µM
Saracatinib/AZD0530
  GR50, 72 h: 3.5 µM
THZ531 [4]
  GR50, 72 h: 0.466 µM
[5]
  GR50, 72 h: 0.119 µM
AZD1775
  GR50, 72 h: 3.9 µM
[6]
  GR50, 72 h: 0.0156 µM
[7]; 0.0001 µM
  increase in dead-cell fraction: -0.0077
[7]; 0.0003162 µM
  increase in dead-cell fraction: -0.0011
[7]; 0.001 µM
  increase in dead-cell fraction: -0.006
[7]; 0.003162 µM
  increase in dead-cell fraction: -0.0052
[7]; 0.01 µM
  increase in dead-cell fraction: -0.0076
[7]; 0.03162 µM
  increase in dead-cell fraction: 0.0197
[7]; 0.1 µM
  increase in dead-cell fraction: 0.148
[7]; 0.3162 µM
  increase in dead-cell fraction: 0.323
[7]; 1 µM
  increase in dead-cell fraction: 0.478
[8]; 0.0003162 µM
  increase in dead-cell fraction: -0.0086
[8]; 0.001 µM
  increase in dead-cell fraction: -0.0086
[8]; 0.003162 µM
  increase in dead-cell fraction: -0.0036
[8]; 0.01 µM
  increase in dead-cell fraction: -0.0059
[8]; 0.03162 µM
  increase in dead-cell fraction: -0.0024
[8]; 0.1 µM
  increase in dead-cell fraction: -0.0087
[8]; 0.3162 µM
  increase in dead-cell fraction: 0.0108
[8]; 1 µM
  increase in dead-cell fraction: 0.0355
[8]; 3.162 µM
  increase in dead-cell fraction: 0.0448
BSJ-03-123; 0.001 µM
  increase in dead-cell fraction: -0.0051
BSJ-03-123; 0.003162 µM
  increase in dead-cell fraction: -0.0117
BSJ-03-123; 0.01 µM
  increase in dead-cell fraction: 0.001
BSJ-03-123; 0.03162 µM
  increase in dead-cell fraction: 0.0013
BSJ-03-123; 0.1 µM
  increase in dead-cell fraction: -0.0048
BSJ-03-123; 0.3162 µM
  increase in dead-cell fraction: -0.0048
BSJ-03-123; 1 µM
  increase in dead-cell fraction: 0.009
BSJ-03-123; 3.162 µM
  increase in dead-cell fraction: 0.0049
BSJ-03-123; 10 µM
  increase in dead-cell fraction: 0.0309
THZ1 [9]; 0.0001 µM
  increase in dead-cell fraction: -0.004
THZ1 [9]; 0.0003162 µM
  increase in dead-cell fraction: -0.0048
THZ1 [9]; 0.001 µM
  increase in dead-cell fraction: -0.0107
THZ1 [9]; 0.003162 µM
  increase in dead-cell fraction: -0.0093
THZ1 [9]; 0.01 µM
  increase in dead-cell fraction: -0.0068
THZ1 [9]; 0.03162 µM
  increase in dead-cell fraction: -0.0102
THZ1 [9]; 0.1 µM
  increase in dead-cell fraction: -0.002
THZ1 [9]; 0.3162 µM
  increase in dead-cell fraction: 0.0031
THZ1 [9]; 1 µM
  increase in dead-cell fraction: 0.215
LEE011/Ribociclib; 0.001 µM
  increase in dead-cell fraction: -0.0027
LEE011/Ribociclib; 0.003162 µM
  increase in dead-cell fraction: -0.0038
LEE011/Ribociclib; 0.01 µM
  increase in dead-cell fraction: -0.0001
LEE011/Ribociclib; 0.03162 µM
  increase in dead-cell fraction: -0.0005
LEE011/Ribociclib; 0.1 µM
  increase in dead-cell fraction: 0.0163
LEE011/Ribociclib; 0.3162 µM
  increase in dead-cell fraction: 0.0047
LEE011/Ribociclib; 1 µM
  increase in dead-cell fraction: 0.0042
LEE011/Ribociclib; 3.162 µM
  increase in dead-cell fraction: 0.0248
LEE011/Ribociclib; 10 µM
  increase in dead-cell fraction: 0.0149
THZ531 [10]; 0.0001 µM
  increase in dead-cell fraction: -0.0038
THZ531 [10]; 0.0003162 µM
  increase in dead-cell fraction: -0.0067
THZ531 [10]; 0.001 µM
  increase in dead-cell fraction: -0.005
THZ531 [10]; 0.003162 µM
  increase in dead-cell fraction: -0.0057
THZ531 [10]; 0.01 µM
  increase in dead-cell fraction: -0.0007
THZ531 [10]; 0.03162 µM
  increase in dead-cell fraction: 0.0062
THZ531 [10]; 0.1 µM
  increase in dead-cell fraction: 0.0006
THZ531 [10]; 0.3162 µM
  increase in dead-cell fraction: -0.0035
THZ531 [10]; 1 µM
  increase in dead-cell fraction: 0.527
YKL-5-124; 0.001 µM
  increase in dead-cell fraction: 0.0076
YKL-5-124; 0.003162 µM
  increase in dead-cell fraction: 0.0133
YKL-5-124; 0.01 µM
  increase in dead-cell fraction: 0.0465
YKL-5-124; 0.03162 µM
  increase in dead-cell fraction: 0.0193
YKL-5-124; 0.1 µM
  increase in dead-cell fraction: 0.0243
YKL-5-124; 0.3162 µM
  increase in dead-cell fraction: 0.0368
YKL-5-124; 1 µM
  increase in dead-cell fraction: 0.0396
YKL-5-124; 3.162 µM
  increase in dead-cell fraction: 0.0167
YKL-5-124; 10 µM
  increase in dead-cell fraction: 0.0439
Neratinib/HKI272; 0.0003162 µM
  increase in dead-cell fraction: -0.0049
Neratinib/HKI272; 0.001 µM
  increase in dead-cell fraction: -0.0044
Neratinib/HKI272; 0.003162 µM
  increase in dead-cell fraction: -0.0012
Neratinib/HKI272; 0.01 µM
  increase in dead-cell fraction: -0.0052
Neratinib/HKI272; 0.03162 µM
  increase in dead-cell fraction: -0.0028
Neratinib/HKI272; 0.1 µM
  increase in dead-cell fraction: -0.0038
Neratinib/HKI272; 0.3162 µM
  increase in dead-cell fraction: -0.0011
Neratinib/HKI272; 1 µM
  increase in dead-cell fraction: -0.0033
Neratinib/HKI272; 3.162 µM
  increase in dead-cell fraction: 0.0028
